Reference: ChEMBL document CHEMBL3758102, “Serrulatane Diterpenoid from Eremophila neglecta Exhibits Bacterial Biofilm Dispersion and Inhibits Release of Pro-inflammatory Cytokines from Activated Macrophages” (J Nat Prod, 2015)
Values after ≈ are worked out from the molar mass of the structure shown. Active and inactive are the calls of the source. No cut-off for these calls is given here.

Columns and labels:
[1] = Induction of apoptosis in C57Bl/6 mouse BMDM cells assessed as viable cells at 160 uM by annexin V-FITC/DAPI staining-based flow cytometric analysis (reference value: 46.7%); type: functional; conditions: C57BI/6, BMDM, read-out: Activity
[2] = Induction of apoptosis in C57Bl/6 mouse BMDM cells assessed as dead cells at 40 uM by annexin V-FITC/DAPI staining-based flow cytometric analysis (reference value: 24.4%); type: functional, C57BI/6
BMDM [3] = test: Inhibition of IL10 production in C57Bl/6 mouse BMDM cells by ELISA; type: functional, cell-based; conditions: C57BI/6
[4] = test system: Staphylococcus epidermidis; test: Antibiofilm activity against Staphylococcus epidermidis ATCC 35984 assessed as inhibition of 12 hrs pre-established biofilm formation at 0.064 umol/well after 20 hrs by safranin staining-based method; type: functional, organism-based
BMDM [5] = test: Increase in IL-1beta production in C57Bl/6 mouse BMDM cells at 2.5 to 80 uM pretreated for 1 hr prior to ATP-stimulation by ELISA; type: functional, cell-based; conditions: C57BI/6
Staphylococcus aureus [6] = test: Antibacterial activity against Staphylococcus aureus ATCC 25923 incubated overnight by broth microdilution method; type: functional
[7] = test system: Staphylococcus epidermidis; test: Antibiofilm activity against Staphylococcus epidermidis ATCC 35984 assessed as 12 hrs pre-established biofilm viable cell count at 0.08 umol/mesh after 20 hrs by […] using compound impregnated in polypropylene mesh (reference value: 8.6 x 10^9 CFU/ml); type: functional
[8] = test system: Staphylococcus epidermidis; test: Antibiofilm activity against Staphylococcus epidermidis ATCC 35984 assessed as reduction in 12 hrs pre-established biofilm viable cell count at 0.16 umol after 20 hrs relative to control; type: functional
[9] = Induction of apoptosis in C57Bl/6 mouse BMDM cells assessed as late apoptotic cells at 2.5 uM by annexin V-FITC/DAPI staining-based flow cytometric analysis (reference value: 28.4%); type: functional, C57BI/6
Staphylococcus aureus [10] = test: Antibacterial activity against Staphylococcus aureus ATCC 29213 incubated overnight by broth microdilution method; type: functional
[11] = Induction of apoptosis in C57Bl/6 mouse BMDM cells assessed as viable cells at 20 uM by annexin V-FITC/DAPI staining-based flow cytometric analysis (reference value: 46.7%); type: functional; conditions: C57BI/6, BMDM, read-out: Activity
[12] = Induction of apoptosis in C57Bl/6 mouse BMDM cells assessed as dead cells at 160 uM by annexin V-FITC/DAPI staining-based flow cytometric analysis (reference value: 24.4%); type: functional, C57BI/6
[13] = Induction of apoptosis in C57Bl/6 mouse BMDM cells assessed as dead cells at 20 uM by annexin V-FITC/DAPI staining-based flow cytometric analysis (reference value: 24.4%); type: functional, C57BI/6
[14] = test system: Staphylococcus epidermidis; test: Antibiofilm activity against Staphylococcus epidermidis ATCC 35984 assessed as 12 hrs pre-established supernatant viable cell count at 0.01 umol/mesh after 20 hrs by […] using compound impregnated in polypropylene mesh (Rvb =7.7 x 10^8 CFU/ml); type: functional
BMDM [15] = test: Inhibition of IL-6 production in C57Bl/6 mouse BMDM cells at 10 uM pretreated prior to LPS-stimulation measured on day 7 by ELISA; type: functional, cell-based; conditions: C57BI/6
[16] = test system: Staphylococcus epidermidis; test: Antibiofilm activity against Staphylococcus epidermidis ATCC 35984 assessed as 12 hrs pre-established supernatant viable cell count at 0.08 umol/mesh after 20 hrs by […] using compound impregnated in polypropylene mesh (Rvb =7.7 x 10^8 CFU/ml); type: functional
[17] = test system: Staphylococcus epidermidis; test: Antibiofilm activity against Staphylococcus epidermidis ATCC 35984 assessed as 12 hrs pre-established supernatant viable cell count at 0.16 umol/mesh after 20 hrs by […] using compound impregnated in polypropylene mesh (Rvb =7.7 x 10^8 CFU/ml); type: functional
[18] = Induction of apoptosis in C57Bl/6 mouse BMDM cells assessed as late apoptotic cells at 40 uM by annexin V-FITC/DAPI staining-based flow cytometric analysis (reference value: 28.4%); type: functional, C57BI/6
BMDM [19] = test: Inhibition of IL-6 production in C57Bl/6 mouse BMDM cells at 5 uM pretreated prior to LPS-stimulation measured on day 7 by ELISA; type: functional, cell-based; conditions: C57BI/6
[20] = test system: Staphylococcus epidermidis; test: Antibiofilm activity against Staphylococcus epidermidis ATCC 35984 assessed as 3 hrs pre-established biofilm viable cell count after 20 hrs (reference value: 1 x 10^10 CFU/ml); type: functional
[21] = test system: Staphylococcus epidermidis; test: Antibiofilm activity against Staphylococcus epidermidis ATCC 35984 assessed as 12 hrs pre-established biofilm viable cell count at 0.04 umol/mesh after 20 hrs by […] using compound impregnated in polypropylene mesh (reference value: 8.6 x 10^9 CFU/ml); type: functional
[22] = Induction of apoptosis in C57Bl/6 mouse BMDM cells assessed as late apoptotic cells at 80 uM by annexin V-FITC/DAPI staining-based flow cytometric analysis (reference value: 28.4%); type: functional, C57BI/6
[23] = test system: Staphylococcus epidermidis; test: Antibacterial activity against Staphylococcus epidermidis ATCC 35984 incubated overnight by broth microdilution method; type: functional
[24] = Cytotoxicity against C57Bl/6 mouse BMDM cells assessed as cell viability at <=80 uM after 72 hrs by MTS assay; type: cell-based, C57BI/6
[25] = test system: Staphylococcus epidermidis; test: Antibiofilm activity against Staphylococcus epidermidis ATCC 35984 assessed as 12 hrs pre-established biofilm viable cell count at 0.16 umol/mesh after 20 hrs by […] using compound impregnated in polypropylene mesh (reference value: 8.6 x 10^9 CFU/ml); type: functional
[26] = Induction of apoptosis in C57Bl/6 mouse BMDM cells assessed as viable cells at 2.5 uM by annexin V-FITC/DAPI staining-based flow cytometric analysis (reference value: 46.7%); type: functional; conditions: C57BI/6, BMDM, read-out: Activity
[27] = test system: Staphylococcus epidermidis; test: Antibiofilm activity against Staphylococcus epidermidis ATCC 35984 assessed as 12 hrs pre-established biofilm viable cell count at 0.01 umol/mesh after 20 hrs by […] using compound impregnated in polypropylene mesh (reference value: 8.6 x 10^9 CFU/ml); type: functional
Pseudomonas aeruginosa = test: Antibacterial activity against Pseudomonas aeruginosa ATCC 27853 at 658 uM incubated overnight by broth microdilution method; type: functional, organism-based
[28] = test system: Staphylococcus epidermidis; test: Antibiofilm activity against Staphylococcus epidermidis ATCC 35984 assessed as inhibition of 24 hrs pre-established biofilm formation at 0.064 umol/well after 20 hrs by safranin staining-based method; type: functional, organism-based

CC(C)=CCC[C@H](C)[C@@H]1CC[C@@H](C)c2c(O)cc(C(=O)O)cc21
viability at 160 µM [1]: 53%
Activity [2]: 21.8%
inhibition (BMDM [3]): inactive
inhibition [4]: Active
Activity (BMDM [5]): inactive
MBC (Staphylococcus aureus [6]): 82 µM (≈ 25.9 µg/mL)
MIC (Staphylococcus aureus [6]): 41 µM (≈ 13 µg/mL)
Activity [7]: 2.7 ×10⁵ CFU/ml
Activity [8]: 5 log10CFU/ml
Activity [9]: 32.7%
MBC (Staphylococcus aureus [10]): 82 µM (≈ 25.9 µg/mL)
MIC (Staphylococcus aureus [10]): 82 µM (≈ 25.9 µg/mL)
viability at 20 µM [11]: 62.2%
Activity [12]: 0.63%
Activity [13]: 6.76%
Activity [14]: 3.4 ×10⁸ CFU/ml
inhibition (BMDM [15]): inactive
Activity [16]: 4.4 ×10⁴ CFU/ml
Activity [17]: 9 ×10³ CFU/ml
Activity [18]: 27.7%
inhibition (BMDM [19]): Active
Activity [20]: 0 CFU/ml
Activity [21]: 6.7 ×10⁸ CFU/ml
Activity [22]: 44.4%
MBC [23]: 82 µM (≈ 25.9 µg/mL)
MIC [23]: 82 µM (≈ 25.9 µg/mL)
Activity [24]: Non-toxic
Activity [25]: 3.9 ×10⁴ CFU/ml
viability at 2.5 µM [26]: 51.4%
Activity [27]: 1.6 ×10⁹ CFU/ml
Activity (Pseudomonas aeruginosa): inactive
Activity [28]: inactive
